Experimental data published in BindingDB's records for doi:10.1016/j.chembiol.2016.06.017 (Universitätsklinikum Frankfurt, 2016).

Molecular target: T1, 3-phosphoinositide-dependent protein kinase 1 [50-359] (Homo sapiens, UniProt O15530)
T1 construct: 50-359
T1 sequence (O15530 whole entry): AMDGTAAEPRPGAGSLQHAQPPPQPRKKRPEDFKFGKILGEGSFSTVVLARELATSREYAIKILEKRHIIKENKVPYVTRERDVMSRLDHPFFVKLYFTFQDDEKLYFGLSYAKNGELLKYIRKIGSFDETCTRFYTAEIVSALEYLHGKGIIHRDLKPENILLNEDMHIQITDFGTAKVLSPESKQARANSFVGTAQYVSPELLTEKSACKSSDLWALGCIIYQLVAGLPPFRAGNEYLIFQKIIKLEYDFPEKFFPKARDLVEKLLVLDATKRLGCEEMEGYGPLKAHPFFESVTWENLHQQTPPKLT
Assay: Isothermal titration calorimetry
Conditions: pH 7.4
Description: For the titrations of PDK1 with adenosine, the protein and the compound were prepared in 50 mMTris-HCl (pH 7.4), 200 mM NaCl, 1 mM DTT and 1% v/v DMSO. For the titration of PDK1 with PS653 theprotein and the compound were prepared in 50 mM Tris-HCl (pH 7.4), 200 mM NaCl, 1 mM DTT and 5% v/vDMSO. […] The titrationof PDK1 with adenosine was performed at 25 C, and the titration of PDK1 with PS653 was made at 37 C. Rawcalorimetric data were corrected for heats of dilution. Binding stoichiometries, enthalpy values and Kd valueswere determined by fitting corrected data to

Kd: 1250 nM
Compound: O=C1c2ccccc2-c2n[nH]c3cccc1c23 [SP-600125]
